Test system: Human patients with short bowel syndrome
Test: Example 1: liver diagnostic biomarkers (total bilirubin, ALT, AST, ALP) in short bowel syndrome patients, every four weeks for 24 weeks
Format: in vivo
Design: AST (SGOT) Change from Baseline, Median / ALT (SGPT), Median / TOTAL BILIRUBIN, Median / TOTAL BILIRUBIN Change from Baseline, Median / ALT (SGPT) Change from Baseline, Median / AST (SGOT), Median: unit not given here
Protocol: Human patients with short bowel syndrome were divided into three groups: a control group (16 total individuals) to receive placebo, an experimental group (35 total individuals) to receive teduglutide at 0.05 mg/kg/day throughout the study, and an experimental group (32 total individuals) to receive teduglutide at 0.1 mg/kg/day throughout the study. Patients were treated by subcutaneous injection of placebo or the appropriate dose of teduglutide. As individuals with short bowel syndrome are likely to experience associated liver and kidney disease, known biomarkers of liver and kidney function were monitored every four weeks, for 24 weeks. The liver biomarkers tested included total bilirubin, ALT and AST and ALP. The kidney biomarkers tested included urea nitrogen, creatinine and GFR. Before administration of placebo or teduglutide, diagnostic biomarker levels were tested to establish a baseline for each individual.
To visualize the effect of GLP-2 on the levels of the diagnostic biomarkers, the average change from baseline was calculated for the placebo and teduglutide treated groups for each visit after a baseline was established. The average change from baseline of each group is depicted in FIGS. […]. The numerical figures for each diaanostic biomarker at each time point are depicted in Table 1.
The efficacy of teduglutide in treating liver dysfunction was further tested by sorting the data into two groups: individuals with abnormal baseline values of liver diagnostic biomarkers; and individuals with normal baseline values of liver diagnostic biomarkers. The mean diagnostic biomarker change from baseline for these two groups is shown for ALT (FIGS. 5 and 6) and AST (FIGS. 7 and 8). […] These changes were significant when compared to baseline levels for the group, and when compared to placebo (see FIGS. 5 and 7).
The raw data for this sorting is reproduced in Table 2 below.

[1] = Week 4, range <−5%, teduglutide 0.05 mg/kg/day
[2] = Week 4, range <−5%, teduglutide 0.1 mg/kg/day
[3] = Week 4, range >5%, teduglutide 0.05 mg/kg/day
[4] = Week 4, range >5%, teduglutide 0.1 mg/kg/day
[5] = Week 4, range −5%<= and <=5%, teduglutide 0.05 mg/kg/day
[6] = Week 4, range −5%<= and <=5%, teduglutide 0.1 mg/kg/day
[7] = Week 8, range <−5%, teduglutide 0.05 mg/kg/day
[8] = Week 8, range <−5%, teduglutide 0.1 mg/kg/day
[9] = Week 8, range >5%, teduglutide 0.05 mg/kg/day
[10] = Week 8, range >5%, teduglutide 0.1 mg/kg/day
[11] = Week 8, range −5%<= and <=5%, teduglutide 0.05 mg/kg/day
[12] = Week 8, range −5%<= and <=5%, teduglutide 0.1 mg/kg/day
[13] = Week 12, range <−5%, teduglutide 0.05 mg/kg/day
[14] = Week 12, range <−5%, teduglutide 0.1 mg/kg/day
[15] = Week 12, range >5%, teduglutide 0.05 mg/kg/day
[16] = Week 12, range >5%, teduglutide 0.1 mg/kg/day

CC[C@H](C)[C@H](NC(=O)[C@H](Cc1ccccc1)NC(=O)[C@H](CC(=O)O)NC(=O)[C@H](CCCNC(=N)N)NC(=O)[C@H](C)NC(=O)[C@H](C)NC(=O)[C@H](CC(C)C)NC(=O)[C@H](CC(N)=O)NC(=O)[C@H](CC(=O)O)NC(=O)[C@H](CC(C)C)NC(=O)[C@@H](NC(=O)[C@@H](NC(=O)[C@H](CC(N)=O)NC(=O)[C@H](CCSC)NC(=O)[C@H](CCC(=O)O)NC(=O)[C@H](CC(=O)O)NC(=O)[C@H](CO)NC(=O)[C@H](Cc1ccccc1)NC(=O)[C@H](CO)NC(=O)CNC(=O)[C@H](CC(=O)O)NC(=O)CNC(=O)[C@@H](N)Cc1c[nH]cn1)[C@@H](C)O)[C@@H](C)CC)C(=O)N[C@@H](CC(N)=O)C(=O)N[C@@H](Cc1c[nH]c2ccccc12)C(=O)N[C@@H](CC(C)C)C(=O)N[C@H](C(=O)N[C@@H](CCC(N)=O)C(=O)N[C@H](C(=O)N[C@@H](CCCCN)C(=O)N[C@H](C(=O)N[C@H](C(=O)N[C@@H](CC(=O)O)C(=O)O)[C@@H](C)O)[C@@H](C)CC)[C@@H](C)O)[C@@H](C)CC [teduglutide]
AST (SGOT), Median (0.10 mg/kg/day, DW20): 30.0
TOTAL BILIRUBIN Change from Baseline, Mean (SD) (0.10 mg/kg/day, DW20): −2.7 (14.42)
TOTAL BILIRUBIN Change from Baseline, Median (0.10 mg/kg/day, DW20): 0.0
TOTAL BILIRUBIN, Mean (SD) (0.10 mg/kg/day, DW20): 10.4 (10.13)
TOTAL BILIRUBIN, Median (0.10 mg/kg/day, DW20): 7.0
ALKALINE PHOSPHATASE Change from Baseline, Mean (SD) (0.10 mg/kg/day, DW24): −18.9 (67.08)
ALKALINE PHOSPHATASE Change from Baseline, Median (0.10 mg/kg/day, DW24): −21.0
ALKALINE PHOSPHATASE, Mean (SD) (0.10 mg/kg/day, DW24): 136.7 (85.50)
ALKALINE PHOSPHATASE, Median (0.10 mg/kg/day, DW24): 105.0
ALT (SGPT) Change from Baseline, Mean (SD) (0.10 mg/kg/day, DW24): −7.3 (32.62)
ALT (SGPT) Change from Baseline, Median (0.10 mg/kg/day, DW24): −4.0
ALT (SGPT), Mean (SD) (0.10 mg/kg/day, DW24): 42.2 (27.28)
ALT (SGPT), Median (0.10 mg/kg/day, DW24): 37.0
AST (SGOT) Change from Baseline, Mean (SD) (0.10 mg/kg/day, DW24): −4.8 (23.34)
AST (SGOT) Change from Baseline, Median (0.10 mg/kg/day, DW24): −3.0
AST (SGOT), Mean (SD) (0.10 mg/kg/day, DW24): 35.3 (18.69)
AST (SGOT), Median (0.10 mg/kg/day, DW24): 32.0
TOTAL BILIRUBIN Change from Baseline, Mean (SD) (0.10 mg/kg/day, DW24): −2.4 (12.73)
TOTAL BILIRUBIN Change from Baseline, Median (0.10 mg/kg/day, DW24): 0.0
TOTAL BILIRUBIN, Mean (SD) (0.10 mg/kg/day, DW24): 11.3 (12.28)
TOTAL BILIRUBIN, Median (0.10 mg/kg/day, DW24): 9.0
ALKALINE PHOSPHATASE change from baseline: patients in range, n(%) [1]: 21(60.0%)
ALT (SGPT) change from baseline: patients in range, n(%) [1]: 22(62.9%)
AST (SGOT) change from baseline: patients in range, n(%) [1]: 21(60.0%)
TOTAL BILIRUBIN change from baseline: patients in range, n(%) [1]: 12(34.3%)
ALKALINE PHOSPHATASE change from baseline: patients in range, n(%) [2]: 17(53.1%)
ALT (SGPT) change from baseline: patients in range, n(%) [2]: 20(62.5%)
AST (SGOT) change from baseline: patients in range, n(%) [2]: 17(53.1%)
TOTAL BILIRUBIN change from baseline: patients in range, n(%) [2]: 16(50.0%)
ALKALINE PHOSPHATASE change from baseline: patients in range, n(%) [3]: 3(8.6%)
ALT (SGPT) change from baseline: patients in range, n(%) [3]: 8(22.9%)
AST (SGOT) change from baseline: patients in range, n(%) [3]: 5(14.3%)
TOTAL BILIRUBIN change from baseline: patients in range, n(%) [3]: 8(22.9%)
ALKALINE PHOSPHATASE change from baseline: patients in range, n(%) [4]: 11(34.4%)
ALT (SGPT) change from baseline: patients in range, n(%) [4]: 10(31.3%)
AST (SGOT) change from baseline: patients in range, n(%) [4]: 10(31.3%)
TOTAL BILIRUBIN change from baseline: patients in range, n(%) [4]: 12(37.5%)
ALKALINE PHOSPHATASE change from baseline: patients in range, n(%) [5]: 6(17.1%)
ALT (SGPT) change from baseline: patients in range, n(%) [5]: 0(0.0%)
AST (SGOT) change from baseline: patients in range, n(%) [5]: 2(5.7%)
TOTAL BILIRUBIN change from baseline: patients in range, n(%) [5]: 6(17.1%)
ALKALINE PHOSPHATASE change from baseline: patients in range, n(%) [6]: 4(12.5%)
ALT (SGPT) change from baseline: patients in range, n(%) [6]: 2(6.3%)
AST (SGOT) change from baseline: patients in range, n(%) [6]: 4(12.5%)
TOTAL BILIRUBIN change from baseline: patients in range, n(%) [6]: 3(9.4%)
ALKALINE PHOSPHATASE change from baseline: patients in range, n(%) [7]: 21(60.0%)
ALT (SGPT) change from baseline: patients in range, n(%) [7]: 16(45.7%)
AST (SGOT) change from baseline: patients in range, n(%) [7]: 16(45.7%)
TOTAL BILIRUBIN change from baseline: patients in range, n(%) [7]: 13(37.1%)
ALKALINE PHOSPHATASE change from baseline: patients in range, n(%) [8]: 24(75.0%)
ALT (SGPT) change from baseline: patients in range, n(%) [8]: 20(62.5%)
AST (SGOT) change from baseline: patients in range, n(%) [8]: 21(65.6%)
TOTAL BILIRUBIN change from baseline: patients in range, n(%) [8]: 16(50.0%)
ALKALINE PHOSPHATASE change from baseline: patients in range, n(%) [9]: 6(17.1%)
ALT (SGPT) change from baseline: patients in range, n(%) [9]: 9(25.7%)
AST (SGOT) change from baseline: patients in range, n(%) [9]: 9(25.7%)
TOTAL BILIRUBIN change from baseline: patients in range, n(%) [9]: 8(22.9%)
ALKALINE PHOSPHATASE change from baseline: patients in range, n(%) [10]: 5(15.6%)
ALT (SGPT) change from baseline: patients in range, n(%) [10]: 8(25.0%)
AST (SGOT) change from baseline: patients in range, n(%) [10]: 5(15.6%)
TOTAL BILIRUBIN change from baseline: patients in range, n(%) [10]: 7(21.9%)
ALKALINE PHOSPHATASE change from baseline: patients in range, n(%) [11]: 2(5.7%)
ALT (SGPT) change from baseline: patients in range, n(%) [11]: 4(11.4%)
AST (SGOT) change from baseline: patients in range, n(%) [11]: 4(11.4%)
TOTAL BILIRUBIN change from baseline: patients in range, n(%) [11]: 4(11.4%)
ALKALINE PHOSPHATASE change from baseline: patients in range, n(%) [12]: 2(6.3%)
ALT (SGPT) change from baseline: patients in range, n(%) [12]: 2(6.3%)
AST (SGOT) change from baseline: patients in range, n(%) [12]: 4(12.5%)
TOTAL BILIRUBIN change from baseline: patients in range, n(%) [12]: 6(18.8%)
ALKALINE PHOSPHATASE change from baseline: patients in range, n(%) [13]: 23(65.7%)
ALT (SGPT) change from baseline: patients in range, n(%) [13]: 19(54.3%)
AST (SGOT) change from baseline: patients in range, n(%) [13]: 19(54.3%)
TOTAL BILIRUBIN change from baseline: patients in range, n(%) [13]: 14(40.0%)
ALKALINE PHOSPHATASE change from baseline: patients in range, n(%) [14]: 19(59.4%)
ALT (SGPT) change from baseline: patients in range, n(%) [14]: 20(62.5%)
AST (SGOT) change from baseline: patients in range, n(%) [14]: 15(46.9%)
TOTAL BILIRUBIN change from baseline: patients in range, n(%) [14]: 14(43.8%)
ALKALINE PHOSPHATASE change from baseline: patients in range, n(%) [15]: 2(5.7%)
ALT (SGPT) change from baseline: patients in range, n(%) [15]: 4(11.4%)
AST (SGOT) change from baseline: patients in range, n(%) [15]: 5(14.3%)
TOTAL BILIRUBIN change from baseline: patients in range, n(%) [15]: 6(17.1%)
ALKALINE PHOSPHATASE change from baseline: patients in range, n(%) [16]: 10(31.3%)
ALT (SGPT) change from baseline: patients in range, n(%) [16]: 7(21.9%)
AST (SGOT) change from baseline: patients in range, n(%) [16]: 10(31.3%)
TOTAL BILIRUBIN change from baseline: patients in range, n(%) [16]: 9(28.1%)
ALKALINE PHOSPHATASE change from baseline: patients in range, n(%) (Week 12, range −5%<= and <=5%, teduglutide 0.05 mg/kg/day): 2(5.7%)

— patent US20130072430A1, “METHODS FOR TREATMENT OR PROPHYLAXIS OF KIDNEY OR LIVER DYSFUNCTION” (NPS PHARMACEUTICALS, INC., priority 2010, published 2013)
